Measurements published in patent US7943749B2, “Antimicrobial 2-deoxystreptamine compounds” (Isis Pharmaceuticals, Inc., priority 2004, dated 2011).
“And” between values parts separate entries of the source, which are not always exact repeats. Identical values can stand only once. Like-named read-outs stand apart in the source and are kept apart here.

How the values were obtained:
[1] = tested on: E. Coli; assay: MIC, E. Coli; format: cell-based; settings: 24 h;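 further: minimum inhibitory concentration determined in duplicate in 96-well plates, compounds given in 4% aqueous DMSO, with ampicillin and tetracycline as positive controls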
Method: (§1) The MIC assays are carried out in 150 μL volume in duplicate in 96-well clear flat-bottom plates. The bacterial suspension from an overnight culture growth in appropriate medium is added to a solution of test compound in 4% DMSO in water. Final bacterial inoculum is approximately 10^5-10^6 CFU/well. […] Both ampicillin and tetracycline are used as antibiotic-positive controls in each screening assay for S. pyogenes, E. coli imp-, E. coli, S. aureus, E. faecalis, K. pneumoniae and P. vulgaris. Ciprofloxacin is used as an antibiotic positive control in each screening assay for P. aeruginosa.

[2] = tested on: S. Aureus; assay: MIC, S. Aureus; format: cell-based; settings: 24 h
Method: as §1

[3] = tested on: E. coli S30 bacterial extract (pBestLuc luciferase reporter); assay: Coupled bacterial transcription/translation assay; format: biochemical; settings: read-out: Trans/trans IC50
Method: The DNA template, pBestLuc™ (Promega), is a plasmid containing a reporter gene for firefly luciferase fused to a strong tac promoter and ribosome binding site. Messenger RNA from 1 μg pBestLuc is transcribed and translated in E. coli S30 bacterial extract in the presence or absence of test compound. Compounds are tested in a black 96 well microtiter plate with an assay volume of 35 μL. […] The transcription/translation reaction is incubated for 35 minutes at 37° C. followed by detection of functional luciferase with the addition of 30 μL LucLite™ (Packard). Light output is quantitated on a Packard TopCount.

[4] = molecular target: 16S ribosomal subunit RNA target; assay: Mass spectrometry based binding assay (FTICR), 16S
Method: In a typical experiment, 10 μL of an aqueous solution containing 100 mM ammonium acetate buffer, 2.5 or 5 μM of each RNA, and 33% isopropyl alcohol (to aid ion desolvation) was prepared with different concentrations of each ligand or ligand mixture. Samples were introduced into the electrospray ionization source (negative ionization mode) at 1 μL/min and ions were stored for 1 sec in an RF-only hexapole following desolvation. The abundances were integrated from the respective ions for free RNA and the ligand-RNA complex. The primary (1:1 RNA:ligand) and secondary (1:2 complex, if observed). […] The peak ratios were measured at each concentration, then a plot of complex/free RNA versus concentration of ligand added was fitted to a second (or higher) order binding polynomial to determine the KD.

[5] = tested on: S. aureus (ATCC 13709)
Method: Male ICR mice are fed with autoclaved commercial food pellets and sterile water ad libitum. Animals are inoculated intraperitoneally with 1.0×10^6 CFU/0.5 mL/mouse of S. aureus (ATCC 13709) containing 10% mucin. Ten animals each are randomly assigned to either control or treatment groups. Test compound and gentamycin (included as a positive control) are both administered subcutaneously one and 3 hour after infection. Test compound is administered as an aqueous buffer solution (phosphate buffered saline (PBS), pH=7.4). The data is presented as the number of mice out of the 10 in the group that were not protected from lethal infection.

[6] = range between growth and complete inhibition

## NCC1OC(OC2C(CO)OC(OC3C(O)C(N)CC(N)C3OC3OC(CO)C(O)C(O)C3N)C2OCCNCCCCc2ccccc2)C(N)C(O)C1O (stereo not drawn) [IBIS00561145]
[1]
  MIC E. Coli.: 3 to 5 µM
[2]
  MIC S. Aureus: 0.6 to 1.2 µM

## NCC1OC(OC2C(CO)OC(OC3C(O)C(N)CC(N)C3OC3OC(CO)C(O)C(O)C3N)C2OCCNc2ccccn2)C(N)C(O)C1O (stereo not drawn) [IBIS00561109]
[1]
  MIC E. Coli.: 12 to 25 µM
[2]
  MIC S. Aureus: 1 to 2 µM

## NCC1OC(OC2C(CO)OC(OC3C(O)C(N)CC(N)C3OC3OC(CO)C(O)C(O)C3N)C2OCCNc2ccccc2)C(N)C(O)C1O (stereo not drawn) [IBIS00560932]
[1]
  MIC E. Coli.: 50 to 100 µM
[2]
  MIC S. Aureus: 6 to 12 µM

## CC(C)CCCC(C)C1CCC2C3CCC4CC(NCCOC5C(OC6C(O)C(N)CC(N)C6OC6OC(CO)C(O)C(O)C6N)OC(CO)C5OC5OC(CN)C(O)C(O)C5N)CCC4(C)C3CCC12C (stereo not drawn) [IBIS00561952]
[1]
  MIC E. Coli.: >10 µM
[2]
  MIC S. Aureus: 2.5 to 5.0 µM

## NCC1OC(OC2C(CO)OC(OC3C(O)C(N)CC(N)C3OC3OC(CO)C(O)C(O)C3N)C2OCCNCc2nc3ccccc3[nH]2)C(N)C(O)C1O (stereo not drawn) [IBIS00560797]
[3]
  IC50: 0.34 µM
[1]; [6]
  MIC E. Coli.: 6 to 12 µM
[2]; [6]
  MIC S. Aureus: 25 to 50 µM
[4]
  Kd: 4.1 µM

## NCC1OC(OC2C(CO)OC(OC3C(O)C(N)CC(N)C3OC3OC(CO)C(O)C(O)C3N)C2OCCNCCc2ccccc2)C(N)C(O)C1O (stereo not drawn) [IBIS00560973]
[5]; 0.1 mg/kg subcutaneously 1 and 3 hour after i.p. infection
  number of mice out of the 10 in the group that were not protected from lethal infection: 5/10
[5]; 0.5 mg/kg subcutaneously 1 and 3 hour after i.p. infection
  number of mice out of the 10 in the group that were not protected from lethal infection: 0/10
[5]; 1 mg/kg subcutaneously 1 and 3 hour after i.p. infection
  number of mice out of the 10 in the group that were not protected from lethal infection: 0/10
[5]; 2 mg/kg subcutaneously 1 and 3 hour after i.p. infection
  number of mice out of the 10 in the group that were not protected from lethal infection: 0/10
[5]; 4.5 mg/kg subcutaneously 1 and 3 hour after i.p. infection
  number of mice out of the 10 in the group that were not protected from lethal infection: 0/10
[5]; 9 mg/kg subcutaneously 1 and 3 hour after i.p. infection
  number of mice out of the 10 in the group that were not protected from lethal infection: 0/10
[5]; 18 mg/kg subcutaneously 1 and 3 hour after i.p. infection
  number of mice out of the 10 in the group that were not protected from lethal infection: 0/10
[5]; 37 mg/kg subcutaneously 1 and 3 hour after i.p. infection
  number of mice out of the 10 in the group that were not protected from lethal infection: 0/10
[5]; 75 mg/kg subcutaneously 1 and 3 hour after i.p. infection
  number of mice out of the 10 in the group that were not protected from lethal infection: 0/10
[5]; S. aureus ATCC 13709 i.p., compound s.c.
  prevention of lethal bacterial infection in mice (in words): effective at preventing lethal bacterial infections in mice
[5]; mouse, in vivo
  number of mice out of the 10 in the group that were not protected from lethal infection: 1/10
[1]
  MIC E. Coli.: 3 to 6 µM
[2]
  MIC S. Aureus: 0.3 to 0.6 µM

## NCC1OC(OC2C(CO)OC(OC3C(O)C(N)CC(N)C3OC3OC(CO)C(O)C(O)C3N)C2OCCNCCc2cccnc2)C(N)C(O)C1O (stereo not drawn) [IBIS00560972]
[1]
  MIC E. Coli.: 6 to 12 µM
[2]
  MIC S. Aureus: 0.6-1^ μM

## NCC1OC(OC2C(CO)OC(OC3C(O)C(N)CC(N)C3OC3OC(CO)C(O)C(O)C3N)C2OCCNC2CCCNC2)C(N)C(O)C1O (stereo not drawn) [IBIS00560725]
[3]
  IC50: 0.08 µM
[1]; [6]
  MIC E. Coli.: 1.5-3^ μM
[2]; [6]
  MIC S. Aureus: 3 to 6 µM
[4]
  Kd: 0.11 µM

## NCC1OC(OC2C(CO)OC(OC3C(O)C(N)CC(N)C3OC3OC(CO)C(O)C(O)C3N)C2OCCNCCCc2ccccc2)C(N)C(O)C1O (stereo not drawn) [IBIS00561144]
[1]
  MIC E. Coli.: 3 to 5 µM
[2]
  MIC S. Aureus: 0.6 to 1.2 µM

## NCCN(CCN)CCOC1C(OC2C(O)C(N)CC(N)C2OC2OC(CO)C(O)C(O)C2N)OC(CO)C1OC1OC(CN)C(O)C(O)C1N (stereo not drawn) [IBIS00560172]
[1]; [6]
  MIC E. Coli.: >50 µM
[2]; [6]
  MIC S. Aureus: 25 to 50 µM

## NCC1OC(OC2C(CO)OC(OC3C(O)C(N)CC(N)C3OC3OC(CO)C(O)C(O)C3N)C2OCCNC2CCCc3ccccc32)C(N)C(O)C1O (stereo not drawn) [IBIS00561950]
[1]
  MIC E. Coli.: >10 µM
[2]
  MIC S. Aureus: 1.25 to 2.5 µM

## NCC1OC(OC2C(CO)OC(OC3C(O)C(N)CC(N)C3OC3OC(CO)C(O)C(O)C3N)C2OCCNCc2ccc(N)nc2)C(N)C(O)C1O (stereo not drawn) [IBIS00560975]
[1]
  MIC E. Coli.: 3 to 6 µM
[2]
  MIC S. Aureus: 0.3 to 0.6 µM

## NCCNCCOC1C(OC2C(O)C(N)CC(N)C2OC2OC(CO)C(O)C(O)C2N)OC(CO)C1OC1OC(CN)C(O)C(O)C1N (stereo not drawn) [IBIS00560177]
[3]
  IC50: 0.29 µM
[1]; [6]
  MIC E. Coli.: 6 µM and 6 to 12 µM
[2]; [6]
  MIC S. Aureus: 2 µM and 2 to 3 µM
